Source: PMC11219871, “Epigenetic-based differentiation therapy for Acute Myeloid Leukemia” (Nature Communications, 2024)
Where “and” joins values, the source holds several entries; their conditions need not be identical. Equal entries are not always repeated. Where two headings read alike, the source gives them in different places.

How the values were obtained:
HDAC11 = molecular target: T1, HDAC11 (Homo sapiens, UniProt Q96DB2); assay: Continuous and direct activity assay for HDAC11; format: biochemical
T1 sequence (Q96DB2 1-347): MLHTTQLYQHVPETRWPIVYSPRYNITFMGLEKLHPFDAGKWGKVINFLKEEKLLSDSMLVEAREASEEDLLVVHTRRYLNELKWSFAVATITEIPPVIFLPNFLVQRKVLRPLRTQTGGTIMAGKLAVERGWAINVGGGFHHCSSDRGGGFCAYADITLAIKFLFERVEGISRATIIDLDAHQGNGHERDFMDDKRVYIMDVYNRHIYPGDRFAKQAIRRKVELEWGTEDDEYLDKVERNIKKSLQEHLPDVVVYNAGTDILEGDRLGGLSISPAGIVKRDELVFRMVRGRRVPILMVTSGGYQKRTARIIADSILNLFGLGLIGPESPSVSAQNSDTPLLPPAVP

[1] = Pharmacokinetic study in plasma samples; format: in vivo, mouse; details: 10 mg/kg i.p.
Protocol: Compounds CM-444 and CM-1758 were measured in plasma using an Acquity UPLC system (Waters, Manchester, UK) coupled to an Xevo-TQ MS triple-quadrupole mass spectrometer with ESI source.
Compound solutions were prepared by dissolving the solid in dimethyl sulfoxide (DMSO) and this solution was made up to a final volume by the addition of a mixture of Tween 20 and 0.9% NaCl (1/1/8, v-v:v, DMSO/Tween 20/saline). For the pharmacokinetic experiments, a drug dosage of 10 mg/kg was administered as a single intraperitoneal injection to RAG-2 mice. Blood was collected at predetermined post-injection times (15 min, and 1, 2, 4, 8 and 24 h) into EDTA-containing tubes, and plasma was obtained via centrifugation (4 °C, 657 g, 5 min) and stored at −80 °C until analysis.
Chromatographic separation was performed by gradient elution at 0.6 mL/min using an Acquity UPLC BEH C18 column (50 × 2.1 mm, 1.7 µm; Waters). The mobile phase consisted of A: water with 0.1% formic acid, B: methanol with 0.1% formic acid. The autosampler temperature was set at 10 °C and the column temperature at 40 °C. For detection and quantification, the ESI operated in the positive mode was set up for multiple reaction monitoring. The collision gas used was ultra-pure argon at a flow rate of 0.15 mL/min.
Quantification was achieved by external calibration using matrix-matched standards. Concentrations were calculated using a weighted least-squares linear regression (W = 1/x). Calibration standards were prepared by adding the appropriate volume of diluted compound solution (made in a mixture of methanol and water, 50:50, v-v) to aliquots of 20 µL of blank plasma. The calibration standard and sample preparation were as follows: 3% formic acid in methanol was added to precipitate the proteins. The mixture was then vortex-agitated for 1 min and centrifuged at 16,522 g for 10 min at 4 °C. A 5-µL aliquot of the supernatant solution was injected into the LC-MS/MS system for analysis. Frozen plasma samples were thawed at room temperature, vortex mixed thoroughly and subjected to the above-described extraction procedure.
The pharmacokinetic parameters were obtained by fitting the blood concentration-time data to a non-compartmental model with WinNonlin software (Pharsight, Mountain View, CA).

MOLM-13 = assay: q-RT-PCR of MYC, CDKN2A, CDKN1A, GATA2, TAL1, CEBPA, SPI1; format: cell-based, human
Protocol: (§1) RNA was extracted with TRIzol Reagent (Invitrogen) according to the manufacturer’s instructions. First, cDNA was synthesized from 1 µg of total RNA using the PrimeScript RT reagent Kit (Perfect Real Time) (Cat No RR037A, TaKaRa) following the manufacturer’s instructions. The quality of cDNA was checked by a multiplex PCR that amplifies PBGD, ABL, BCR and β2-MG genes. […] The following program conditions were used for the q-PCR: 50 °C for 2 min, 95 °C for 60 s following by 45 cycles at 95 °C for 15 s and 60 °C for 60 s; melting program, one cycle at 95 °C for 15 s, 40 °C for 60 s, and 95 °C for 15 s. The relative expression of each gene was quantified by the […] method using the gene GUS as an endogenous control. The sequence of primers used can be found in Supplementary Table 10.

MV4-11 = assay: as above; format: cell-based, human
Protocol: as §1

ML-2 = assay: as above; format: cell-based, human
Protocol: as §1

HL-60 = assay: as above; format: cell-based, human
Protocol: as §1

[2] = MOLM-13, daily treatment for 48 h, replicates 1-3
[3] = MV4-11, daily treatment for 48 h, replicates 1-3
[4] = ML-2, replicates 1-3 (Figure 2E)
[5] = ML-2, replicates 1-3 (Figure 2G)
[6] = ML-2 treated daily for 48 h, replicates (Fig 6G)
[7] = HL-60, replicates 1-3 (Figure 2E)
[8] = HL-60, replicates 1-3 (Figure 2G)
[9] = HL-60 treated daily for 48 h, replicates (Fig 6F)

COc1cc2nc(-c3cc(C)oc3C)cc(NCC3CCN(c4ncc(C(=O)NO)cn4)CC3)c2cc1OC [CM-1758, 2-[4-[[[2-(2,5-dimethyl-3-furyl)-6,7-dimethoxy-4-quinolyl]amino]methyl] -1-piperidyl]pyrimidine-5-carbohydroxamic acid]
inhibition at 10 µM (HDAC11; 10 µM, source data of Fig. 1B): 90%
IC50 (HDAC11; Continuous Activity Assay for HDAC11): 600 nM
plasmatic concentration, Mean ([1]; 24 h): BLOQ
Cl/F ([1]; mice, NCA, mean): 0.26 L/h
concentration at 0.25 h ([1]; RAG-2, mouse, plasma, intraperitoneal, 0.25 h, read-out: plasmatic concentration, Mean): 1700 nM
concentration at 1 h ([1]; RAG-2, mouse, plasma, intraperitoneal, 1 h, read-out: plasmatic concentration, Mean): 352 nM
concentration at 2 h ([1]; RAG-2, mouse, plasma, intraperitoneal, 2 h, read-out: plasmatic concentration, Mean): 77.5 nM
concentration at 4 h ([1]; RAG-2, mouse, plasma, intraperitoneal, 4 h, read-out: plasmatic concentration, Mean): 17.1 nM
concentration at 8 h ([1]; RAG-2, mouse, plasma, intraperitoneal, 8 h, read-out: plasmatic concentration, Mean): 4.3 nM
AUC(0-t) ([1]; RAG-2, mouse, plasma, ip, mice, NCA, mean): 1.69 µM·h
Vd/F ([1]; RAG-2, mouse, plasma, ip, mice, NCA, mean, read-out: Vz/F): 0.72 L
half-life ([1]; RAG-2, mouse, plasma, ip, mice, NCA, mean, read-out: t½ (converted)): 1.95 h
CL/F ([1]; RAG-2, mouse, plasma, ip, mice, NCA, read-out: Norm. Cl/F (converted)): 173 mL/min/kg
Vd/F ([1]; RAG-2, mouse, plasma, ip, mice, NCA, read-out: Norm. Vz/F): 28.6 L/kg
clearance ([1]; mice): 0.26 lh^−1
q-PCR of CEBPA, log10 (2-ΔΔCt) (MOLM-13; [2]): 2.72 and 2.6188 and 2.826
q-PCR of GATA2, log10 (2-ΔΔCt) (MOLM-13; [2]): 1.088 and 1.1424 and 1.015
q-PCR of MYC, log10 (2-ΔΔCt) (MOLM-13; [2]): -0.6216 and -0.5326 and -0.5822
q-PCR of SPI1, log10 (2-ΔΔCt) (MOLM-13; [2]): 0.02692 and 0.258 and 0.1525
q-PCR of TAL1, log10 (2-ΔΔCt) (MOLM-13; [2]): 1.716 and 1.83 and 1.719
CDKN1A log10 (2-ΔΔCt) (MOLM-13; MOLM-13, q-PCR): 0.1026 and 0.1237 and 0.1127
CDKN2A log10 (2-ΔΔCt) (MOLM-13; MOLM-13, q-PCR): 1.026 and 0.9216 and 0.9282
GATA2 log10 (2-ΔΔCt) (MOLM-13; MOLM-13, q-PCR): 0.5214 and 0.4825 and 0.3541
MYC log10 (2-ΔΔCt) (MOLM-13; MOLM-13, q-PCR): -0.9936 and -0.8825 and -0.8494
SPI1 log10 (2-ΔΔCt) (MOLM-13; MOLM-13, q-PCR): 0.02258 and 0.0358 and 0.04789
TAL1 log10 (2-ΔΔCt) (MOLM-13; MOLM-13, q-PCR): 1.37 and 1.426 and 1.336
q-PCR of CEBPA, log10 (2-ΔΔCt) (MV4-11; [3]): 1.278 and 1.212 and 1.279
q-PCR of GATA2, log10 (2-ΔΔCt) (MV4-11; [3]): 2.088 and 2.042 and 2.015
q-PCR of MYC, log10 (2-ΔΔCt) (MV4-11; [3]): -0.6051 and -0.8193 and -0.727
q-PCR of SPI1, log10 (2-ΔΔCt) (MV4-11; [3]): 0.513 and 0.595 and 0.5328
q-PCR of TAL1, log10 (2-ΔΔCt) (MV4-11; [3]): 0.8637 and 0.6983 and 1.049
CDKN1A log10 (2-ΔΔCt) (MV4-11; MV4-11, q-PCR): 0.6259 and 0.6326 and 0.6646
CDKN2A log10 (2-ΔΔCt) (MV4-11; MV4-11, q-PCR): 0.8926 and 0.6026 and 0.7418
CEBPA log10 (2-ΔΔCt) (MV4-11; MV4-11, q-PCR): 1.982 and 1.782 and 1.913
MYC log10 (2-ΔΔCt) (MV4-11; MV4-11, q-PCR): -0.7926 and -0.6522 and -0.726
SPI1 log10 (2-ΔΔCt) (MV4-11; MV4-11, q-PCR): 0.2626 and 0.2252 and 0.159
TAL1 log10 (2-ΔΔCt) (MV4-11; MV4-11, q-PCR): 0.5124 and 0.5 and 0.5901
q-PCR of CDKN1A (p21), log10 (2-ΔΔCt) (ML-2; [4]): 1.727 and 1.688 and 1.928
q-PCR of CDKN2A (p16), log10 (2-ΔΔCt) (ML-2; [4]): 0.7127 and 0.6825 and 0.5556
q-PCR of MYC, log10 (2-ΔΔCt) (ML-2; [4]): -0.9587 and -1.237 and -1.248
q-PCR of CEBPA, log10 (2-ΔΔCt) (ML-2; [5]): 1.926 and 1.786 and 1.671
q-PCR of GATA2, log10 (2-ΔΔCt) (ML-2; [5]): 2.013 and 1.996 and 2.475
q-PCR of SPI1 (PU.1), log10 (2-ΔΔCt) (ML-2; [5]): 0.4833 and 0.5215 and 0.7318
q-PCR of TAL1 (SCL), log10 (2-ΔΔCt) (ML-2; [5]): 1.453 and 1.626 and 1.68
q-PCR of CEBPA (ML-2; [6]): 1.831 log10 (2-ΔΔCt) and 1.961 log10 (2-ΔΔCt) and 2.004 log10 (2-ΔΔCt)
q-PCR of GATA2 (ML-2; [6]): 1.288 log10 (2-ΔΔCt) and 1.216 log10 (2-ΔΔCt) and 1.319 log10 (2-ΔΔCt)
q-PCR of MYC (ML-2; [6]): -0.6622 log10 (2-ΔΔCt) and -0.5247 log10 (2-ΔΔCt) and -0.8222 log10 (2-ΔΔCt)
q-PCR of SPI1 (ML-2; [6]): 0.8685 log10 (2-ΔΔCt) and 0.5818 log10 (2-ΔΔCt) and 0.6427 log10 (2-ΔΔCt)
q-PCR of TAL1 (ML-2; [6]): 1.398 log10 (2-ΔΔCt) and 0.9599 log10 (2-ΔΔCt) and 0.8228 log10 (2-ΔΔCt)
q-PCR of CDKN1A (p21), log10 (2-ΔΔCt) (HL-60; [7]): 1.37 and 1.926 and 1.271
q-PCR of CDKN2A (p16), log10 (2-ΔΔCt) (HL-60; [7]): 0.4933 and 0.5726 and 0.5849
q-PCR of MYC, log10 (2-ΔΔCt) (HL-60; [7]): -0.8313 and -0.6255 and -0.6597
q-PCR of CEBPA, log10 (2-ΔΔCt) (HL-60; [8]): 0.9022 and 0.7826 and 0.9863
q-PCR of GATA2, log10 (2-ΔΔCt) (HL-60; [8]): 0.6526 and 0.7826 and 0.7794
q-PCR of SPI1 (PU.1), log10 (2-ΔΔCt) (HL-60; [8]): 0.3258 and 0.4025 and 0.5101
q-PCR of TAL1 (SCL), log10 (2-ΔΔCt) (HL-60; [8]): 0.0125 and 0.0025 and -0.00845
q-PCR of CEBPA (HL-60; [9]): 1.657 log10 (2-ΔΔCt) and 1.235 log10 (2-ΔΔCt) and 2.096 log10 (2-ΔΔCt)
q-PCR of GATA2 (HL-60; [9]): 0.5314 log10 (2-ΔΔCt) and 0.9421 log10 (2-ΔΔCt) and 0.9001 log10 (2-ΔΔCt)
q-PCR of MYC (HL-60; [9]): -0.7182 log10 (2-ΔΔCt) and -0.6003 log10 (2-ΔΔCt) and -0.8615 log10 (2-ΔΔCt)
q-PCR of SPI1 (HL-60; [9]): 0.5322 log10 (2-ΔΔCt) and 0.69 log10 (2-ΔΔCt) and 0.7959 log10 (2-ΔΔCt)
q-PCR of TAL1 (HL-60; [9]): 1.7134 log10 (2-ΔΔCt) and 1.966 log10 (2-ΔΔCt) and 2.209 log10 (2-ΔΔCt)
